In brackets after ≈: the same amount, converted by molar mass. Where a name gives a salt, the structure may show the parent alone.
How the values were obtained:
Test in all cases: antibacterial activity, IC50 (concentration required for 50 percent inhibition)
Format in all cases: cell-based
[1] = test system: Enterobacter cloacae P 99; conditions: P99
From the text: (§1) In the table below, the antibacterial activity of the compound of Example 2 is compared to that of the known compounds Ampicillin and Mecillinam.
(§2) In the table IC50 means the concentration required for 50 percent inhibition.

[2] = test system: Klebsiella pneumoniae ATCC 10273; conditions: ATCC10273
From the text: as §1, §2

[3] = test system: Salmonella cholerasuis NCTC 5735; conditions: NCTC5735
From the text: as §1, §2

[4] = test system: Pseudomonas aeruginosa PS 18s; conditions: PS18S
From the text: as §1, §2

[5] = test system: E.coli HA 2 Leo strain; conditions: Escherichia coli, HA2LEOSTRAIN
From the text: as §1, §2

[6] = test system: Pseudomonas aeruginosa BA 2 Leo strain; conditions: BA2LEOSTRAIN
From the text: as §1, §2

[7] = test system: Salmonella typhimurium NCTC 5710; conditions: Salmonella enterica
From the text: as §1, §2

[8] = test system: E.coli W3110 (RTEM); conditions: Escherichia coli
From the text: as §1, §2

SMILES | IC50 [1] [µg/mL] | IC50 [2] [µg/mL] | IC50 [3] [µg/mL] | IC50 [4] [µg/mL] | IC50 [5] [µg/mL] | IC50 [6] [µg/mL] | IC50 [7] [µg/mL] | IC50 [8] [µg/mL]
CC1(C)S[C@@H]2[C@H](/N=C/N3CCCCCC3)C(=O)N2[C@H]1C(=O)O [Mecillinam] | 0.1 (≈ 0.307 µM) | ~1 (≈ 3.07 µM) | 0.05 (≈ 0.154 µM) | > 100 | 0.016 (≈ 0.0492 µM) | > 100 | 0.05 (≈ 0.154 µM) | 2 (≈ 6.15 µM)
CC1(C)S[C@@H]2[C@H](NC(=O)[C@H](N)c3ccccc3)C(=O)N2[C@H]1C(=O)O [Ampicillin] | > 100 | 79 (≈ 226 µM) | 0.25 (≈ 0.715 µM) | 50 (≈ 143 µM) | 1.3 (≈ 3.72 µM) | > 100 | 0.4 (≈ 1.14 µM) | > 100
CC1(C)S[C@@H]2[C@H](N=CN3CCC(CSCCN)CC3)C(=O)N2[C@H]1C(=O)O [Example 2, 6-[4'-(2"-Aminoethylthiomethyl)-piperidino-methyleneamino]-penicillanic acid hydrochloride] | 0.063 | 0.32 | 0.05 | 40 | 0.05 | 50 | 0.05 | 1.6

From patent US4246262A, “Derivatives of amidinopenicillanic acid” (Leo Pharmaceutical Products, Ltd. A/S, priority 1977, dated 1981)
